Measurements as given in patent publication US10940139B2, “Compounds that interact with the Ras superfamily for the treatment of cancers, inflammatory diseases, rasopathies, and fibrotic disease” (Shy Therapeutics LLC, priority 2017, dated 2021).
pIC50: −log10 of the molar value. Like-named read-outs stand apart in the source and are kept apart here.

What was measured:
Test in all cases: Ras GTP binding domain inhibition assay (labeled GTP)
KRas G12D mutant protein = KRas G12D mutant protein (Homo sapiens (Human), UniProt P01116, G12D)
KRas G12C mutant = KRas G12C mutant (Homo sapiens (Human), UniProt P01116, G12C)
In short: (§1)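 His-tagged KRas protein (3-10 μg/ml) was captured overnight at 4° C on nickel-coated wells in 50 mM Tris pH 7.5, 1 mM MgCl2, 1 mM DTT. Bound labeled GTP was read by fluorescence after washing.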

[1] = target: KRas G12D/Q61H double mutant (Homo sapiens (Human), UniProt P01116, G12D/Q61H)
In short: as §1

KRas wild type = KRas wild type (Homo sapiens (Human), UniProt P01116)
In short: as §1

[2] = target: KRas G12C/Q61H double mutant (Homo sapiens (Human), UniProt P01116, G12C/Q61H); conditions: 20 μM compound; read-out: % Inhibition at 20 μM KRas G12C Q61H
In short: as §1

KRas Q61H mutant = KRas Q61H mutant (Homo sapiens (Human), UniProt P01116, Q61H); conditions: 20 μM compound; read-out: % Inhibition at 20 μM KRas Q61H
In short: as §1

[3] = 20 μM, read-out: KRas G12D % Inh.
[4] = 20 μM, read-out: KRas G12C % Inh.
[5] = 20 μM, read-out: KRas G12D Q61H % Inh.
[6] = 20 μM, read-out: KRas wild type, % Inh.
[7] = 20 μM compound, read-out: % Inhibition at 20 μM KRas G12D
[8] = 20 μM compound, read-out: % Inhibition at 20 μM KRas G12C
[9] = 20 μM compound, read-out: % Inhibition at 20 μM KRas G12D Q61H
[10] = 20 μM compound, read-out: % Inhibition at 20 μM KRas wild type

Sequence of KRas G12D mutant protein (P01116-2 other isoform, or with tags, fused parts or gaps G12D): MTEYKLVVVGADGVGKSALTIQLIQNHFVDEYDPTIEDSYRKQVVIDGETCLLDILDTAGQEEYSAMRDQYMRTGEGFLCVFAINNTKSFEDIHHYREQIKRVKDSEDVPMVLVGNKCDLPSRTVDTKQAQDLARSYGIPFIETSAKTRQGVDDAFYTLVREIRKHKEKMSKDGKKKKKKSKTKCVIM
Sequence of KRas G12C mutant (P01116-2 other isoform, or with tags, fused parts or gaps G12C): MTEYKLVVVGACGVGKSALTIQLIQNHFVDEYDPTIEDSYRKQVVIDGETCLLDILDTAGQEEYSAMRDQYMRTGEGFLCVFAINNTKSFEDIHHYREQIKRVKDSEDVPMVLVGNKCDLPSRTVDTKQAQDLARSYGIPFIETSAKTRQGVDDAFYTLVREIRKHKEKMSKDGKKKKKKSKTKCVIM
Sequence of KRas wild type (P01116-2 other isoform, or with tags, fused parts or gaps): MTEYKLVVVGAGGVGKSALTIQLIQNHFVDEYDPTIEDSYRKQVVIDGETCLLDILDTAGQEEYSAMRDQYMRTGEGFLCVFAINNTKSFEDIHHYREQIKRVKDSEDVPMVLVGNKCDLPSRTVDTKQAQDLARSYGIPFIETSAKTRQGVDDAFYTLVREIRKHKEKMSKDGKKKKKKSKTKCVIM
Sequence of KRas G12D/Q61H double mutant (P01116-2 other isoform, or with tags, fused parts or gaps G12D/Q61H): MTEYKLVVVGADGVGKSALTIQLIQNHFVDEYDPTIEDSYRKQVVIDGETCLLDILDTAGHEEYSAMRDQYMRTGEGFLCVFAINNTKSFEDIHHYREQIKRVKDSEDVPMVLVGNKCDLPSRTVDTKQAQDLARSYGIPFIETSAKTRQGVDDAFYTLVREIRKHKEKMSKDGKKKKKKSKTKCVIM
Sequence of KRas G12C/Q61H double mutant (P01116-2 other isoform, or with tags, fused parts or gaps G12C/Q61H): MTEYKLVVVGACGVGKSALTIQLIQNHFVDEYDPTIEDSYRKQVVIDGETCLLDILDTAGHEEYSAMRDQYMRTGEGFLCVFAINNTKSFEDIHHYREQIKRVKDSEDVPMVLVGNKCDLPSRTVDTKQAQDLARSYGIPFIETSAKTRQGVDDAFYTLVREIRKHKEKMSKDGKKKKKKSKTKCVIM
Sequence of KRas Q61H mutant (P01116-2 other isoform, or with tags, fused parts or gaps Q61H): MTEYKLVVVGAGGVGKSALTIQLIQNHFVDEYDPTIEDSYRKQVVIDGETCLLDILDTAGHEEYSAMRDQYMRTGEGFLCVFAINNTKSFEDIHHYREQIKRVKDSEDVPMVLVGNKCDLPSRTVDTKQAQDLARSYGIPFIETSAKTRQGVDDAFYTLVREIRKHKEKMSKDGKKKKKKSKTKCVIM

| SMILES | inhibition at 20 µM (KRas G12D mutant protein; [3]) | inhibition at 20 µM (KRas G12C mutant; [4]) | inhibition at 20 µM [1, 5] | inhibition at 20 µM (KRas wild type; [6]) | inhibition at 20 µM (KRas G12D mutant protein; [7]) | inhibition at 20 µM (KRas G12C mutant; [8]) | inhibition at 20 µM [1, 9] | inhibition at 20 µM (KRas wild type; [10]) | other results |
| --- | --- | --- | --- | --- | --- | --- | --- | --- | --- |
| O=C(Nc1nc(-c2ccccn2)cs1)c1ccccn1 [drawing 2573] | 51 to 75% | 51 to 75% | 76 to 100% | 51 to 75% |  |  |  |  |  |
| O=C(Nc1nc(-c2ccccn2)cs1)c1cccnc1 [drawing 2576] | 51 to 75% | 51 to 75% | 51 to 75% | 25 to 50% |  |  |  |  |  |
| O=C(Nc1nc(-c2ccccn2)cs1)c1ccncc1 [drawing 2578] | 51 to 75% | 51 to 75% | 51 to 75% | 51 to 75% |  |  |  |  |  |
| COc1cccc(C(=O)Nc2nc(-c3ccccn3)cs2)c1 [drawing 2580] | 51 to 75% | 51 to 75% | 51 to 75% | 25 to 50% |  |  |  |  |  |
| COc1ccc(C(=O)Nc2nc(-c3ccccn3)cs2)cn1 [drawing 2581] | 76 to 100% | 51 to 75% | 51 to 75% | 51 to 75% |  |  |  |  |  |
| O=c1nc(-c2ccccn2)[nH]c2scc(-c3ccccc3Cl)c12 [drawing 2585] | 51 to 75% | 25 to 50% | 51 to 75% | 25 to 50% |  |  |  |  |  |
| O=c1nc(-c2ccccn2)[nH]c2c1CCC2 [drawing 2591] | 51 to 75% | 25 to 50% | 51 to 75% | 25 to 50% |  |  |  |  |  |
| Cc1cc2c(=O)nc(-c3cc(OCC(F)F)ccn3)[nH]c2s1 [drawing 2593] | 51 to 75% | 25 to 50% | 76 to 100% | 25 to 50% |  |  |  |  |  |
| OCCNc1nc(-c2ccccn2)nc2scc(-c3ccccc3)c12 [drawing 2603] | 51 to 75% | 1 to 25% | 25 to 50% | 1 to 25% |  |  |  |  |  |
| COCC(C)Nc1nc(-c2ccccn2)nc2sc(C)c(-c3ccccc3)c12 (stereo not shown) [drawing 2604] | 51 to 75% | 25 to 50% | 51 to 75% | 25 to 50% |  |  |  |  |  |
| CC(O)CNc1nc(-c2ccccn2)nc2scc(-c3ccccc3)c12 (stereo not shown) [drawing 2607] | 51 to 75% | 1 to 25% | 51 to 75% | 25 to 50% |  |  |  |  |  |
| NC(=O)C1(CNc2nc(-c3ccccn3)nc3c2CCC3)CCCC1 [drawing 2608] | 51 to 75% | 25 to 50% | 51 to 75% | 25 to 50% |  |  |  |  |  |
| OCCOCCNc1nc(-c2ccccn2)nc2scc(-c3ccccc3)c12 [drawing 2609] | 25 to 50% | 25 to 50% | 51 to 75% | 25 to 50% |  |  |  |  |  |
| Cc1sc2nc(-c3ccccn3)nc(NCCCO)c2c1-c1ccccc1 [drawing 2610] | 51 to 75% | 51 to 75% | 51 to 75% | 25 to 50% |  |  |  |  |  |
| Oc1nc(-c2ccccn2)nc2c(Br)csc12 [drawing 2673] |  |  |  |  | 25 to 50% | 25 to 50% | 51 to 75% | 25 to 50% |  |
| O=C(c1csc2c(O)nc(-c3ccccn3)nc12)N1CCN(c2ccccc2)CC1 [drawing 2680] |  |  |  |  | 51 to 75% | 25 to 50% | 76 to 100% | 51 to 75% | pIC50 ([1]; serial dilution, read-out: KRas G12D Q61H (classes E-H, IC50)): 5.00 to 5.30 |
| Oc1nc(-c2ccccn2)nc2c(-c3ccccc3Cl)csc12 [drawing 2695] |  |  |  |  | 25 to 50% | 25 to 50% | 51 to 75% | 1 to 25% | inhibition at 20 µM [2]: 51 to 75%; inhibition at 20 µM (KRas Q61H mutant): 51 to 75% |
| COCCNc1nc(-c2nccn2C)nc2sc(-c3ccccc3)c(-c3ccccc3)c12 [drawing 3535] |  |  |  |  |  |  |  |  | inhibition at 20 µM (KRas G12D mutant protein; 20 μM compound, KRas G12D, read-out: % Inhibition at 20 μM of K-Ras mutant and wild-type protein, KRas G12D): 76 to 100%; inhibition at 20 µM (KRas G12C mutant; 20 μM compound, KRas G12C, read-out: % Inhibition at 20 μM of K-Ras mutant and wild-type protein, KRas G12C): 51 to 75%; inhibition at 20 µM ([1]; 20 μM compound, KRas G12D/Q61H double mutant, read-out: % Inhibition at 20 μM of K-Ras mutant and wild-type protein, KRas G12D Q61H): 51 to 75%; inhibition at 20 µM (KRas wild type; 20 μM compound, KRas wild type, read-out: % Inhibition at 20 μM of K-Ras mutant and wild-type protein, KRas wild type): 1 to 25% |

More lines, main results first:

| inhibition at 20 µM (KRas G12D mutant protein; [3]) | inhibition at 20 µM (KRas G12C mutant; [4]) | inhibition at 20 µM [1, 5] | inhibition at 20 µM (KRas wild type; [6]) | inhibition at 20 µM (KRas G12D mutant protein; [7]) | inhibition at 20 µM (KRas G12C mutant; [8]) | inhibition at 20 µM [1, 9] | inhibition at 20 µM (KRas wild type; [10]) | SMILES | other results |
| --- | --- | --- | --- | --- | --- | --- | --- | --- | --- |
| 1 to 25% | 25 to 50% | 25 to 50% | 1 to 25% |  |  |  |  | COC(=O)c1cccc(CN2CCC(CSc3ccccc3)C2)c1C#N (stereo not shown) [drawing 2611] |  |
| 51 to 75% | 25 to 50% | 51 to 75% | 1 to 25% |  |  |  |  | COC(=O)c1cc(NCc2nc(CC(C)C)no2)ccc1Cl [drawing 2612] |  |
| 51 to 75% | 25 to 50% | 51 to 75% | 25 to 50% |  |  |  |  | Cc1cccc(CN(Cc2ccccn2)Cc2nccn2C)c1 [drawing 2613] |  |
| 25 to 50% | 51 to 75% | 51 to 75% | 25 to 50% |  |  |  |  | COc1ccc(CCC(=O)N2CCCc3c(O)nc(-c4ccccn4)nc32)cc1 [drawing 2640] |  |
| 51 to 75% | 51 to 75% | 76 to 100% | 25 to 50% |  |  |  |  | O=C(c1ccc2ccccc2n1)N1CCCc2c(O)nc(-c3ccccn3)nc21 [drawing 2642] |  |
| 51 to 75% | 25 to 50% | 76 to 100% | 25 to 50% |  |  |  |  | O=C(c1ccn(-c2ccccc2)n1)N1CCCc2c(O)nc(-c3ccccn3)nc21 [drawing 2644] |  |
|  |  |  |  | 51 to 75% | 25 to 50% | 25 to 50% | 51 to 75% | O=C(c1ccc(=O)[nH]n1)N1CCCc2c(O)nc(-c3ccccn3)nc21 [drawing 2646] |  |
|  |  |  |  | 51 to 75% | 25 to 50% | 76 to 100% | 51 to 75% | O=C(OCCc1ccccc1)N1CCCc2c(O)nc(-c3ccccn3)nc21 [drawing 2653] |  |
|  |  |  |  | 25 to 50% | 25 to 50% | 51 to 75% | 25 to 50% | O=C(c1ccccn1)N1CCCc2c(O)nc(-c3ccccn3)nc21 [drawing 2655] |  |
|  |  |  |  | 51 to 75% | 51 to 75% | 51 to 75% | 51 to 75% | O=C(c1csc2c(O)nc(-c3ccccn3)nc12)N1CCC(N2CCCC2=O)CC1 [drawing 2679] |  |
|  |  |  |  | 51 to 75% | 25 to 50% | 51 to 75% | 51 to 75% | O=C(c1csc2c(O)nc(-c3ccccn3)nc12)N1CCN(c2ccncc2)CC1 [drawing 2681] |  |
|  |  |  |  | 51 to 75% | 25 to 50% | 51 to 75% | 76 to 100% | O=C(c1csc2c(O)nc(-c3ccccn3)nc12)N1CCC(c2cccnc2)CC1 [drawing 2682] |  |
|  |  |  |  | 51 to 75% | 25 to 50% | 25 to 50% | 51 to 75% | CC1(O)CCN(C(=O)c2csc3c(O)nc(-c4ccccn4)nc23)CC1 [drawing 2683] |  |
|  |  |  |  | 51 to 75% | 76 to 100% | 76 to 100% | 25 to 50% | CC1(N)CCN(C(=O)c2csc3c(O)nc(-c4ccccn4)nc23)CC1 [drawing 2684] |  |
|  |  |  |  | 51 to 75% | 51 to 75% | 76 to 100% | 25 to 50% | O=C(c1csc2c(O)nc(-c3ccccn3)nc12)N(CCO)CCOCCO [drawing 2687] |  |
|  |  |  |  | 51 to 75% | 25 to 50% | 51 to 75% | 76 to 100% | O=C(NCCc1cccnc1)c1csc2c(O)nc(-c3ccccn3)nc12 [drawing 2689] |  |
|  |  |  |  | 51 to 75% | 25 to 50% | 51 to 75% | 51 to 75% | Oc1nc(-c2ccccn2)nc2c1ncn2-c1ccccc1 [drawing 2697] |  |
|  |  |  |  | 51 to 75% | 51 to 75% | 25 to 50% | 25 to 50% | c1ccc(-c2nc(NCC3CCCO3)c3ccsc3n2)nc1 (stereo not shown) [drawing 2705] |  |
|  |  |  |  | 51 to 75% | 25 to 50% | 25 to 50% | 1 to 25% | COCCC(C)Nc1nc(-c2ccccn2)nc2sccc12 (stereo not shown) [drawing 2709] |  |
|  |  |  |  | 25 to 50% | 25 to 50% | 25 to 50% | 1 to 25% | COCCCCNC(=O)c1csc2nc(-c3ccccn3)nc(N3CCN(C)CC3)c12 [drawing 2739] |  |
|  |  |  |  | 51 to 75% | 51 to 75% | 51 to 75% | 51 to 75% | O=C(c1csc2c(O)nc(-c3ccccn3)nc12)N1CCOC(c2ccc(F)cc2)C1 (stereo not shown) [drawing 2743] |  |
|  |  |  |  | 25 to 50% | 25 to 50% | 1 to 25% | 25 to 50% | NC(=O)Cn1cnc2nc(-c3ccccn3)nc(N3CCOCC3)c21 [drawing 2825] |  |
